Measurements as given in patent publication US20220119767A1, “NATURAL KILLER CELL INDUCED CELLULAR VESICLES FOR CANCER THERAPY” (The Regents of the University of California, priority 2019, published 2022).

Test system: K562 leukemia cancer cells
Method: DOX-loaded ICVs were tested for cytotoxicity to K562 cancer cells compared to free DOX, as assessed by using an MTT assay (see FIG. 5).

With `COc1cccc2c1C(=O)c1c(O)c3c(c(O)c1C2=O)C[C@@](O)(C(=O)CO)C[C@@H]3O[C@H]1C[C@H](N)[C@H](O)[C@H](C)O1` [DOX, doxorubicin] the “order of K562 cytotoxicity” value was “DOX>NK92 ICVs-DOX>K562 ICVs-DOX”.
